Source: patent US20240117303A1, “METHODS AND COMPOSITIONS FOR GENERATING HUMAN MIDBRAIN DOPAMINERGIC NEURONS FROM NEURAL PROGENITOR CELLS” (Trailhead Biosystems Inc., priority 2022, published 2024)
Entries after “also recorded” stand apart in the source; their conditions may differ.

What was measured:
[1] = tested on: human pluripotent stem cells; test: HD-DoE 13-factor experiment for stage 1 recipe, gene expression modeled after 3-day treatment; dynamic profile and factor criticality analysis; type: cell-based
Outline: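 Human pluripotent stem cells given 13-factor effector combinations (e.g. LDN193189, CHIR99021, PD0325901) for 3 days; expression of 53 preselected genes modeled, focusing on OTX2, DMBX1, FOXA2, LMX1A and GBX2. Factor criticality assessed by removing each of five finalized factors and comparing with all five present.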

[2] = tested on: stage 1 neural stem cells; test: HD-DoE 12-factor experiment for stage 2 recipe (first model, FIG. 5-7, 12); type: cell-based, human; conditions: for factor contribution: positive impact
Text: To further guide the differentiation of midbrain-committed neural stem cells to neural progenitor cells at stage 2, we performed an additional HD-DoE experiment. We thereby obtained additional gene regulatory models that were used for preparation of differentiation protocol. The basis of this was a 12-factor HD-DoE experiment with focus on initiation of differentiation of cells toward midbrain neural progenitor cells for an additional 3 days after termination of stage 1 treatment. Here, we focused on expression of LMX1A and FOXA2 in neural progenitor cells with low to zero expression of GBX2. LMX1A had significant high expression level in the model with value of 47888. Therefore, we used optimization setting for this gene to identify the positive factors. The factors in this experiment included SC79, MK2206, ZM336372, PD0325901, CHIR99021, A 83-01, TTNPB, AGN193109, GW3965, SR9243, Purmorphamine and GSI-XX.
To assess the impact of elimination of each validated factor, we used dynamic profile analysis and compared the expression level of genes of interest in absence of each finalized factor while others are present.
In the stage 2 recipe, each of the six finalized factors were removed while the other five factors were present and the expression levels of FOXA2, LMX1A and GBX2 were assessed, compared to the levels in the presence of all factors. According to the first experiment model, the absence of TTNPB lead to a rise of GBX2 expression, while the value of FOXA2 and LMX1A reduced drastically from 10,000 to 0 and 30,000 to 15,000, respectively. The absence of A 83-01 reduced the expression of FOXA2 from 10,000 to 7000, however, as expected, the value of LMX1A increased from 30,000 to 40,000. […] According to the second experiment model, the absence of BMP7 and MK2206 both reduced the level of FOXA2 while increasing the value of LMX1A, with BMP7 as the main effector that led to 0 expression of FOXA2.

[3] = dynamic profile / model, 12 effectors

Cc1c[nH]c(-c2cnc(NCCNc3ccc(C#N)cn3)nc2-c2ccc(Cl)cc2Cl)n1 [CHIR99021]
impact on expression of FOXA2 ([1]; dynamic profile, 13 effectors): positive impact
impact on expression of OTX2 ([1]; dynamic profile, 13 effectors): positive impact
factor contribution ([1]; model optimized for maximum expression of FOXA2, positive effect): 15.6
factor contribution ([1]; model optimized for maximum expression of OTX2, positive impact, 3-day treatment): 13.5
expression level of LMX1A in absence of the factor ([1]; stage 1 recipe, other four factors present, 300 with all five factors): reduced
expression level of FOXA2 in absence of the factor ([1]; stage 1 recipe, other four factors present, 600 with all five factors): reduced
expression level of DMBX1 in absence of the factor ([1]; stage 1 recipe, other four factors present, 3000 with all five factors): reduced
expression level of OTX2 in absence of the factor ([1]; stage 1 recipe, other four factors present, 12000 with all five factors): reduced
impact on expression of FOXA2 [2, 3]: reduces
impact on expression of LMX1A [2, 3]: positive effect; also recorded: positive impact
impact on expression level of GBX2 ([2]; dynamic profile, 12 effectors): increases
factor contribution ([2]; model optimized for LMX1A): 8.3
factor contribution ([2]; model optimized for maximum expression of FOXA2): 10.7
